PubChem BioAssay AID651988 (The Scripps Research Institute Molecular Screening Center, 2013)
Calls of active or inactive are those of the source.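 The calls were made as follows: active = inhibition of 50% or more at 300 nM in exactly one of the two enzyme panels, LYPLA1 or LYPLA2; inactive = under 50% in both panels, or reaching 50% in both.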

Experiments:
[1] = biological target: Acyl-protein thioesterase 2 (Homo sapiens) (UniProt O95372); experiment: LYPLA1 and LYPLA2 inhibitors in proteome, late-stage follow-up, selectivity assay for LYPLA1/LYPLA2 inhibitor project, cell lysate, gel-based ABPP, fluorescence, HEK293T proteome, powder samples (AID 651988); conditions: HEK293T soluble proteome, FP-PEG-Rh fluorescence, LYPLA2, at 10 µM, stronger effect = higher value
Acyl-protein thioesterase 2 (Homo sapiens), sequence (O95372 whole entry, looked up): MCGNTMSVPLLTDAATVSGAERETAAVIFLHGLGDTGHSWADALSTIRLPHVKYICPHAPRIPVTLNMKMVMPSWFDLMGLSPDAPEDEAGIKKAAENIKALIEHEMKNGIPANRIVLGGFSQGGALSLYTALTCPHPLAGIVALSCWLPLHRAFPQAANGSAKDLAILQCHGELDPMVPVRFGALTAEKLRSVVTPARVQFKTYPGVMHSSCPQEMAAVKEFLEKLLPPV

[2] = biological target: Acyl-protein thioesterase 1 (Homo sapiens) (UniProt O75608); experiment: as above; conditions: HEK293T soluble proteome, FP-PEG-Rh fluorescence, LYPLA1, at 10 µM, stronger effect = higher value
Acyl-protein thioesterase 1 (Homo sapiens), sequence (O75608 whole entry, looked up): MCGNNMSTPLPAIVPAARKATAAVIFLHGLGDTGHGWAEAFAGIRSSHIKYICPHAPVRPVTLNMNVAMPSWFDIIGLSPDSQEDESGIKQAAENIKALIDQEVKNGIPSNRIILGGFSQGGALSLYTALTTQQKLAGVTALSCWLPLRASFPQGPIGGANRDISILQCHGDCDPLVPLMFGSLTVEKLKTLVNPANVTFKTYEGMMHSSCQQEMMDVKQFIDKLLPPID

Q: O=C(CN1CCN(C(=O)c2ccco2)CC1)Nc1ccc(Br)cc1Cl was tested. Which inhibition [1] did it give?
A: Its inhibition is 50% (inactive).

Q: What about the inhibition [2] of the same compound?
A: The inhibition was 50% (inactive).

Q: What does the source list for O=C(CN1CCN(C(=O)c2ccco2)CC1)Nc1ccc(Cl)cc1Cl?
A: inhibition [1]: 50% (inactive); inhibition [2]: 50% (inactive)

Q: For COc1ccccc1N1CCN(C(=O)c2cc3c(s2)-c2ccccc2S(=O)(=O)C3)CC1, which inhibition [1] is on record?
A: Its inhibition is 0% (inactive).

Q: And the inhibition [2]?
A: The inhibition was 0% (inactive).

Q: Which inhibition [1] does the source give for O=C(c1cc2c(s1)-c1ccc(Cl)cc1S(=O)(=O)C2)N1CCN(c2ccccn2)CC1 here?
A: The inhibition was 0% (inactive).

Q: And the inhibition [2]?
A: The inhibition was 0% (inactive).

Q: Which inhibition [1] does the source give for O=C(CN1CCN(C(=O)c2ccccc2)CC1)Nc1cc(S(=O)(=O)N2CCCC2)ccc1Cl here?
A: Its inhibition is 0% (inactive).

Q: What about the inhibition [2] of the same compound?
A: The inhibition was 75% (inactive).

Q: How did the inhibition [1] turn out when O=C(CN1CCN(C(=O)c2ccco2)CC1)Nc1cc(C(F)(F)F)ccc1Cl was run?
A: Its inhibition is 25% (inactive).

Q: What about the inhibition [2] of the same compound?
A: Its inhibition is 100%.

Q: Which results are given for O=C(c1ccco1)N1CCN(C(=S)Nc2ccc(F)c(Cl)c2)CC1?
A: inhibition [1]: 50% (inactive); inhibition [2]: 100% (inactive)

Q: For CC(C(=O)Nc1cccc(C(F)(F)F)c1)N1CCN(C(=O)c2ccco2)CC1 (configuration not stated), which inhibition [1] is on record?
A: The inhibition was 0% (inactive).

Q: What about the inhibition [2] of the same compound?
A: The inhibition was 0% (inactive).

Q: What does the source list for COc1ccc(N2CCN(C(=O)c3cc4c(s3)-c3ccccc3S(=O)(=O)C4)CC2)cc1?
A: inhibition [1]: 100%; inhibition [2]: 0% (inactive)

Q: Which inhibition [1] does the source give for O=C(COc1ccc(Cl)cc1)N1CCN(c2cccc(C(F)(F)F)c2)CC1 here?
A: Its inhibition is 0% (inactive).

Q: And the inhibition [2]?
A: Its inhibition is 25% (inactive).

Q: How did the inhibition [1] turn out when O=C(c1cc2c(s1)-c1ccccc1S(=O)(=O)C2)N1CCN(C2CCCCC2)CC1 was run?
A: The inhibition was 25% (inactive).

Q: What about the inhibition [2] of the same compound?
A: The inhibition was 0% (inactive).

Q: With CCOC(=O)N1CCN(C(=O)c2cc3c(s2)-c2ccc(Cl)cc2S(=O)(=O)C3)CC1 as the compound, how does the inhibition [1] read?
A: The inhibition was 0% (inactive).

Q: And the inhibition [2]?
A: Its inhibition is 0% (inactive).

Q: What does the source list for O=C(c1cc2c(s1)-c1ccccc1S(=O)(=O)C2)N1CCN(c2cccc(Cl)c2)CC1?
A: inhibition [1]: 0% (inactive); inhibition [2]: 0% (inactive)

Q: Which results are given for O=C(c1cc2c(s1)-c1ccccc1S(=O)(=O)C2)N1CCN(c2ccccc2)CC1?
A: inhibition [1]: 75% (inactive); inhibition [2]: 0% (inactive)

Q: What does the source list for O=C(CN1CCN(C(=O)c2ccco2)CC1)Nc1cc(Cl)ccc1Cl?
A: inhibition [1]: 25% (inactive); inhibition [2]: 100%

Q: For O=C(c1cc2c(s1)-c1ccccc1S(=O)(=O)C2)N1CCN(c2ccc(Cl)cc2)CC1, which inhibition [1] is on record?
A: Its inhibition is 100% (inactive).

Q: And the inhibition [2]?
A: Its inhibition is 0% (inactive).

Q: O=C(Nc1ccc(N2CCN(C(=O)c3ccco3)CC2)c(Cl)c1)c1c(F)c(F)c(F)c(F)c1F was tested. Which inhibition [1] did it give?
A: The inhibition was 50% (inactive).

Q: And the inhibition [2]?
A: The inhibition was 75% (inactive).

Q: What does the source list for O=C(c1cc2c(s1)-c1ccc(Cl)cc1S(=O)(=O)C2)N1CCN(C2CCCCC2)CC1?
A: inhibition [1]: 75% (inactive); inhibition [2]: 0% (inactive)

Q: Which results are given for O=C(c1ccco1)N1CCN(C(=S)Nc2cccc([N+](=O)[O-])c2)CC1?
A: inhibition [1]: 0% (inactive); inhibition [2]: 0% (inactive)

Q: For COc1ccc(N2CCN(C(=O)c3ccc(C(C)(C)C)cc3)CC2)cc1, which inhibition [1] is on record?
A: Its inhibition is 75% (inactive).

Q: And the inhibition [2]?
A: The inhibition was 0% (inactive).

Q: Which inhibition [1] does the source give for Cc1nnsc1C(=O)N1CCCC(N2CCN(c3cccc(C(F)(F)F)c3)CC2)C1 (configuration not stated) here?
A: Its inhibition is 0% (inactive).

Q: What about the inhibition [2] of the same compound?
A: Its inhibition is 0% (inactive).

Q: How did the inhibition [1] turn out when O=C(CN1CCN(C(=O)c2ccco2)CC1)Nc1cccc(Cl)c1Cl was run?
A: The inhibition was 0% (inactive).

Q: And the inhibition [2]?
A: Its inhibition is 0% (inactive).

Q: O=C(c1cc2c(s1)-c1ccc(Cl)cc1S(=O)(=O)C2)N1CCN(c2ncccn2)CC1 was tested. Which inhibition [1] did it give?
A: Its inhibition is 75% (inactive).

Q: What about the inhibition [2] of the same compound?
A: Its inhibition is 0% (inactive).

Q: O=C(c1cc2c(s1)-c1ccccc1S(=O)(=O)C2)N1CCN(Cc2ccccc2)CC1 was tested. Which inhibition [1] did it give?
A: Its inhibition is 50% (inactive).

Q: And the inhibition [2]?
A: The inhibition was 0% (inactive).

Q: What does the source list for COc1ccc(N2CCN(C(=O)c3cc4c(s3)CCCCC4)CC2)cc1?
A: inhibition [1]: 100% (inactive); inhibition [2]: 0% (inactive)

Q: For CC1CCc2c(sc(NC(=O)CN3CCN(C(=O)c4ccco4)CC3)c2C#N)C1 (configuration not stated), which inhibition [1] is on record?
A: The inhibition was 0% (inactive).

Q: What about the inhibition [2] of the same compound?
A: The inhibition was 0% (inactive).
